Measurements published in ChEMBL document CHEMBL1143693, “Cancer chemopreventive effects of cycloartane-type and related triterpenoids in in vitro and in vivo models” (J Nat Prod, 2007).

Tests used:
[1] = system: Human gammaherpesvirus 4; assay: Inhibition of TPA-induced Epstein-Barr virus early antigen activation in Raji cells after 48 hrs; type: functional, organism-based; settings: human gammaherpesvirus 4, Raji
[2] = system: Human gammaherpesvirus 4; assay: Inhibition of TPA-induced Epstein-Barr virus early antigen activation assessed as EBV-EA induction in Raji cells at 32 nM after 48 hrs relative to TPA; values are per cent of control; settings: human gammaherpesvirus 4, Raji
[3] = system: Human gammaherpesvirus 4; assay: Inhibition of TPA-induced Epstein-Barr virus early antigen activation assessed as EBV-EA induction in Raji cells at 0.32 nM after 48 hrs relative to TPA; values are per cent of control; settings: human gammaherpesvirus 4, Raji
[4] = system: Raji; assay: Cell viability of Raji cells at 320 nM; type: functional, Homo sapiens
[5] = system: Human gammaherpesvirus 4; assay: Inhibition of TPA-induced Epstein-Barr virus early antigen activation assessed as EBV-EA induction in Raji cells at 320 nM after 48 hrs relative to TPA; values are per cent of control; settings: human gammaherpesvirus 4, Raji
[6] = Scavenging activity against NO generation in human Chang liver cells assessed as inhibition of NOR1-activation at 350 nM relative to NOR1; type: functional
[7] = system: Human gammaherpesvirus 4; assay: Inhibition of TPA-induced Epstein-Barr virus early antigen activation assessed as EBV-EA induction in Raji cells at 3.2 nM after 48 hrs relative to TPA; values are per cent of control; settings: human gammaherpesvirus 4, Raji

Row | SMILES | IC50 [1] [nM] | level, % of control at 0.032 µM [2] [%] | level, % of control at 0.00032 µM [3] [%] | Activity [4] [%] | level, % of control at 0.32 µM [5] [%] | Activity [6] | level, % of control at 0.0032 µM [7] [%]
1 | C=C(CC[C@@H](C)[C@H]1CC[C@@]2(C)[C@@H]3CC[C@H]4[C@@H](C)[C@@H](O)CC[C@@]45C[C@@]35CC[C@]12C)C(C)C | 9.5 | 29.9 | 95.1 | 70 | 0 | 1.5 | 72
2 | C=C(C)[C@@H](C)CC[C@@H](C)[C@H]1CC[C@@]2(C)[C@@H]3CC[C@H]4[C@H](C)[C@H](O)CC[C@@]45C[C@@]35CC[C@]12C | 9.3 | 29.3 | 94.5 | 70 | 0 | 1.8 | 71.5
3 | C=C(CC[C@@H](C)[C@H]1CC[C@@]2(C)[C@@H]3CC[C@H]4[C@H](C)C(=O)CC[C@@]45C[C@@]35CC[C@]12C)C(C)C [CYCLOEUCALENONE] | 10.3 | 33.4 | 96.2 | 70 | 0 | 1.5 | 74
4 | CC(C)C(=O)CC[C@@H](C)[C@H]1CC[C@@]2(C)[C@@H]3CC[C@H]4C(C)(C)C(=O)CC[C@@]45C[C@@]35CC[C@]12C | 9 | 24 | 96.3 | 70 | 0 | 1.9 | 72.1
5 | C=C(CC[C@@H](C)[C@H]1CC[C@@]2(C)[C@@H]3CC[C@H]4C[C@@H](O)CC[C@@]45C[C@@]35CC[C@]12C)C(C)C | 9.5 | 30.5 | 95.8 | 70 | 0 | 1.5 | 72.7
6 | C=C(C)C(=O)CC[C@@H](C)[C@H]1CC[C@@]2(C)[C@@H]3CC[C@H]4C(C)(C)[C@@H](O)CC[C@@]45C[C@@]35CC[C@]12C | 9.3 | 25.4 | 97.8 | 70 | 1.5 | 1.4 | 73.1
7 | C[C@H](C/C=C/C(C)(C)O)[C@H]1CC[C@@]2(C)[C@@H]3CC[C@H]4C(C)(C)C(=O)CC[C@@]45C[C@@]35CC[C@]12C | 8.6 | 20 | 90.1 | 70 | 0 | 1.9 | 67.2
8 | C/C(=C\C[C@@H](C)[C@H]1CC[C@@]2(C)[C@@H]3CC[C@H]4C(C)(C)[C@@H](O)CC[C@@]45C[C@@]35CC[C@]12C)C(C)C [(23E)-CYCLOSADOL] | 9.9 | 31.4 | 95.2 | 70 | 0 | 2 | 72.8
9 | C=C(CC[C@@H](C)[C@H]1CC[C@@]2(C)[C@@H]3CC[C@H]4[C@H](C)[C@@H](OC(C)=O)CC[C@@]45C[C@@]35CC[C@]12C)C(C)C [CYCLOEUCALENOL ACETATE] | 10.1 | 32.4 | 96.2 | 70 | 0 | 1.5 | 73.5
10 | CC(C)CCC[C@@H](C)[C@H]1CC[C@@]2(C)[C@@H]3CC[C@H]4C[C@@H](O)CC[C@@]45C[C@@]35CC[C@]12C [POLLINASTANOL] | 9.9 | 31.7 | 95.9 | 70 | 0 | 1.5 | 73.1
11 | C=C(CC[C@@H](C)[C@H]1CC[C@@]2(C)[C@@H]3CC[C@H]4[C@H](C)[C@H](O)CC[C@@]45C[C@@]35CC[C@]12C)C(C)C | 9.4 | 30.5 | 95.9 | 70 | 0 | 1.6 | 73.1
12 | C=C(C)C(O)CC[C@@H](C)[C@H]1CC[C@@]2(C)[C@@H]3CC[C@H]4C(C)(C)C(=O)CC[C@@]45C[C@@]35CC[C@]12C (some centres undefined) | 8.6 | 21.1 | 91.2 | 70 | 0 | 2 | 69.7
